According to PMC11396667, “Design, Synthesis, and Anticancer and Antibacterial Activities of Quinoline-5-Sulfonamides” (Molecules, 2024):

How the values were obtained:
[1] = system: C-32, A549, MDA-MB-231 and HFF-1 cells; experiment: Crystal violet, WST-1 and LDH assays of 3c; assay type: cell-based; conditions: 3c in medium above 0.3 µM, 72 h; particularly in A549 and MDA-MB-231 cells
Description: The effect of the compound on cell viability was determined using, in addition to the WST-1 assay, the crystal violet assay and the LDH (lactate dehydrogenase) assay. Furthermore, a wound healing test (indicator of cell proliferation and migration capacity) and assessment of gene expression (in the transcription phase) of BCL-2, BAX, TP53, P21, and H3 were performed.
An increase in the number of dead cells is shown by the absorbance line in the LDH test.
Cells were seeded in 96-well plates at 5000/well in 100 μL of medium. After 24 h of incubation, the medium was replaced with a new one with the addition of the test substance. […]
Crystal violet test: The crystal violet (Sigma-Aldrich, Darmstadt, Germany) test determines the relative number of cells based on the amount of dye bound to the DNA of cells in the culture. The absorbance measurement was performed at a wavelength of λ = 540 nm (reference wavelength λ = 690 nm).
WST-1 test: The WST-1 test (Roche Diagnostics, Mannheim, Germany) allows one to determine the relative number of cells in cultures. Absorbance is directly proportional to the number of cells and their metabolic activity. The absorbance measurement is performed at λ = 450 nm (reference wave 600 nm). […]

[2] = system: H3, BCL-2, BAX, P21, and P53 genes in C-32, A549, MDA-MB-231, and HFF-1 cells; experiment: Transcriptional activity by RT-QPCR; assay type: cell-based, human; conditions: 36 µM in medium, 24 h
Description: The study investigated the effect of compound 3c on the transcriptional activity of genes encoding a proliferation marker (histone H3), cell cycle regulators (P53 and P21), and genes encoding proteins involved in the mitochondrial apoptosis pathway (BCL-2 and BAX) in C-32, A549, MDA-MB-231, and HFF-1 cells. Cultures were exposed to 3c at a concentration of 36 µM in medium for 24 h.
The transcriptional activity of the following genes was assessed: H3 (a gene encoding histone H3, a proliferation marker), BCL-2 and BAX (genes encoding BCL-2 and BAX proteins, respectively; both are mitochondrial proteins associated with apoptosis), and P21 and P53 (cell cycle regulators). Activity was assessed by RT-QPCR using the CFX96 Touch Real-Time PCR Detection System (BIO-RAD Hercules, CA, USA) and a SensiFAST^TM SYBR^R No-ROX One-Step Kit (Meridian Bioscience, Memphis, TN, USA). Cultured cells were exposed (for 24 h) to the tested compounds (0.5 µg/mL). RNA was extracted using Quick-RNA™ MiniPrep kit columns (Zymo Research, Irvine, CA, USA). The extracted RNA was assessed qualitatively and quantitatively. The integrity of total RNA was checked by electrophoresis (1.2% agarose gel, EtBr), and the amount and purity of total RNA in the extracts was determined spectrophotometrically (HP8452A apparatus, Hewlett Packard, Waldbronn, Germany).

[3] = system: C-32, A549, MDA-MB-231 and HFF-1 cells; experiment: Wound healing assay; assay type: cell-based, human; conditions: 3 µM, 72 h after scratching, all cells
Description: Photographs of the cell culture (control and culture exposed to compound 3c at a concentration of 3 µM) were taken after scraping the bottom of the vessel with a pipette tip and then after 72 h of incubation (Figure 2). […] In control cultures, the cell-free surface of the vessel (scraped with a pipette tip) becomes overgrown with cells, while in cultures supplemented with medium containing 3 µM of compound 3c, empty spots are visible. In the case of A549 and MDA-MB-231 cells, entire cell-free regions are clearly visible.
The wound healing assay is a standard in vitro technique for examining collective cell migration in two dimensions. The test involves scratching the bottom of a vessel (wells of a culture plate) with a pipette tip and observing over time how quickly cells move to occupy a free surface under specific culture conditions. In the presented work, the observation was carried out after 72 h of culture. At t = 0, a scratch was made, the medium was replaced with fresh one with the addition of the test compound, and then the cultures were incubated for 72 h. The observation was carried out using an OLYMPUS IX 50 microscope (Tokyo, Japan) with a KERN camera (KERN & SOHN GmbH, Balingen, Germany), and an image analysis system with KERN software (BalanceConnection SCD-4.0 Pro) was used to analyze the observed changes.

C#CCN(C)S(=O)(=O)c1ccc(O)c2ncccc12 [3c, 8-Hydroxy-N-methyl-N-(prop-2-yn-1-yl)quinoline-5-sulfonamide]
cell number in cultures (cell viability and cytotoxicity assays) [1]: significant decrease in cell number | BCL-2/BAX ratio (ratio of gene copy numbers) [2]: in favor of BAX | transcriptional activity of P21 [2]: increase in the transcriptional activity | transcriptional activity of P53 [2]: increase in the transcriptional activity | H3 expression (proliferation marker) ([2]; all the cultures): reduction in H3 expression | proliferative activity and migration capacity (wound healing) [3]: reduction in proliferative activity and migration capacity
